The source of these data is a melting point compilation (Tetko et al.; mined from patent text by program, amines drawn as free bases though some values may be those of a salt).

Each structure is given as a SMILES string.

What is called melting point is the temperature of the solid-liquid transition. The molecule `O=C(COC1CCCCO1)c1ccc(Cl)cc1` (stereo not given) registered a melting point of 57 °C.

Molecule `O=c1[nH]c2cc(Br)ccc2c(O)c1-c1ccccc1` displayed a melting point of 343 to 345 °C.

In turn, `COc1ccc(C(=O)Nc2ccc3ccc(C#N)nc3n2)cc1` gave a melting point of 283 °C.

`NS(=O)(=O)c1ccc(NS(=O)(=O)/C=C/c2ccccc2)cc1` returned a melting point of 171 to 173 °C.

`O=C(NC1CCCCC1)c1cc2ccncc2[nH]1`: the melting point was 298 to 301 °C.

For `COC(=O)C1=C(C)NN=C(C(=O)N(C)Cc2ccccc2)C1c1ccccc1C(F)(F)F` (stereo not given), the melting point was 197 °C.

`CCCCc1nc2c(N)nc3ccccc3c2n1CCCCN1CCCS1(=O)=O` came in with a melting point of 173 to 176 °C.

For `Cc1ccc(-c2nccc3c(Cl)cccc23)cc1`, the melting point lay in the range of 88.6 to 89.1 °C.

In the case of `CC(C)OC(=O)Nc1cccc2c1C(=O)C1(O)c3ccc(C(C)C)cc3OC21O` (stereo not given), the melting point lay in the range of 200 to 202 °C.

Molecule `COc1ccc2cccc(CCOS(=O)(=O)c3ccccc3)c2c1` returned a melting point of 61.8 to 63 °C.

For the molecule `N#CC(C(=O)Nc1ccccc1)C(=O)c1nn(-c2ccccc2)c2c1CSc1ccc(N=CN3CCOCC3)cc1-2` (stereo not given), the melting point lay within 205 to 210 °C.

As to `COC(=O)c1ccccc1Sc1ccccc1OC`, the melting point is 82 to 84 °C.

In turn, `O=C1CCC(c2cccc(F)c2)(c2cccc(F)c2)[C@@H]2CN(Cc3ccccc3)C[C@H]12` (racemic) came in with a melting point of 124 °C.

As for `CC(C)C[C@H](NC(=O)CCS(=O)(=O)c1ccccc1)C(=O)N[C@@H](C(C)C)[C@@H](O)c1c(-c2ccccc2)c1=O`, the melting point lay within 100 to 106 °C.

The molecule `CCn1c(=O)c(-c2c(Cl)cccc2Cl)cc2cnc(Nc3ccc(OC)c(OC)c3)nc21` gave a melting point of 221 to 223 °C.

Molecule `O=C(O)c1nn(-c2c(Cl)cc(C(F)(F)F)cc2Cl)cc1OC(F)(F)C(F)Cl` (racemic) showed a melting point of 149 to 159 °C.

For the molecule `COc1ccc(-c2cccc(-c3nc(C(C)C)[nH]c3-c3cccc(C)n3)c2)cn1`, the melting point lay in the range of 72 to 74 °C.

On to `O=c1oc(=O)n(C2CC2)c2cc(F)c(F)cc12`, for which the melting point fell in the range of 138 to 139 °C.

`CSc1ccc(-c2c(NN)nc(Cl)nc2-c2ccccc2)cc1` registered a melting point of 272 to 274 °C.

For the molecule `O=C(O)C1CCN(Cc2ccccc2)CC1`, the melting point is 167 to 168 °C.

Turning to `O=C(Cl)c1ccc2c(c1)C(C(F)(F)F)(C(F)(F)F)c1cc(C(=O)Cl)ccc1O2`, the melting point was in the range of 216 to 218 °C.

Regarding `CC(C)(C)OC(=O)NOC(=O)OC(C)(C)C`, the melting point was 52 °C.

As for `Nc1scc2c(C(=O)O)nn(-c3ccc(Br)cc3)c(=O)c12`, the melting point is > 300 °C.

`CC(C)(C#N)c1ccc(C(=O)c2cccs2)cc1` registered a melting point of 139 °C.

Take `CC(=O)c1cccc(NC(=O)c2cc(C(=O)Nc3cccc(C(C)=O)c3)cc(C(=O)Nc3cccc(C(C)=O)c3)c2)c1`: the melting point was determined as 270 °C.

As for `COc1ccc(-c2ccc(CCNC(=O)c3cc(Cl)ccc3OC)cc2S(N)(=O)=O)cc1`, the melting point fell in the range of 205 to 208 °C.

As to `CC(C)(C)c1ccc(C(=O)Nc2ccc([N+](=O)[O-])cc2C(=O)O)cc1`, the melting point fell in the range of 245 to 249 °C.

`Cn1c(CO)cc2cccc(F)c21`: the melting point lay in the range of 89 to 91 °C.

For the molecule `CCOC(=O)C=Cc1cc(C(C)=O)ccc1OC`, the melting point is 90 °C.

The molecule `Cn1c(C(=O)O)c(-c2ccc(F)cc2)c2ccn(C)c2c1=O` gave a melting point of 155 to 157 °C.

On to `Cc1c[nH]c(C)c1C(C)(C)C`, for which the melting point lay in the range of 70 to 71 °C.

`O=C1CC(Cc2ccccc2Cl)CN1` (stereo not given) registered a melting point of 87 to 89 °C.

`O=C(NN1CCCC1=O)C(O)=CC(=O)c1cc(Cc2ccc(F)cc2F)cn(Cc2ccc(F)cc2)c1=O` had a melting point of 87 to 88 °C.

Regarding `CC(C)Oc1ccc2c(c1)C(=O)c1ccc(C(=O)O)cc1CC2`, the melting point lay in the range of 174 to 177 °C.

As for `Cc1ccc(S(=O)(=O)N2[C@@H](c3ncon3)CC[C@H]2c2ccc(F)cc2)cc1` (racemic), the melting point came out at 165 °C.

`CCCCc1c(Cl)nc(N=CN(C)C)nc1Cl`: the melting point was 66 to 68 °C.

Regarding `CCn1c(C(C#N)c2cc(C)cc(C#N)c2)c(C(C)C)c(=O)n(COC)c1=O` (stereo not given), the melting point lay in the range of 202 to 205 °C.

Turning to `CC(=O)C(C#N)=Cc1ccccc1`, the melting point was 83 to 84 °C.

For `CCCn1cc(Cc2ccc(C(=O)NS(=O)(=O)c3ccccc3C)cc2OC)c2cc(C=CCC(=O)N(C)C)ccc21`, the melting point was in the range of 119 to 121 °C.

`CCCCCCCCCCCCCCOc1cccc(CO)c1` returned a melting point of 49 to 50 °C.

The molecule `O=C1c2ccccc2-c2cc(Nc3nc(Nc4ccc5c(c4)-c4ccccc4C5=O)nc(-c4cccn4Cc4ccccc4)n3)ccc21` had a melting point of 140 to 142 °C.

For `COC(=O)C(C)(C)Oc1cc(C)c(C)c(Br)c1C`, the melting point lay in the range of 66 to 68 °C.

In turn, `COc1ccc2c(c1)CCC1C2=CCC2(C)C(O)CCC12` (stereo not given) displayed a melting point of 95 to 97 °C.

With `Cc1c(C(=O)c2sc(Nc3ccc(N4CCOCC4)cc3)nc2N)ncn1C`, the melting point was > 300 °C.

Consider `COc1cccc(C(=O)C=C(SC)SC)c1`, for which the melting point was 119 to 121 °C.

In the case of `Cl/C(=C\c1ccc(Br)cc1)c1ccc(Cl)cc1`, the melting point is 108 °C.

For the molecule `CCCCOc1ccc(C(=O)O)c(OC)c1`, the melting point lay in the range of 94 to 96 °C.

Molecule `CCOC(=O)c1sc2c(c1OC(C)=O)CN(Cc1ccccc1Cl)CC2` gave a melting point of 110 °C.

Molecule `COC(=O)C(C)Oc1ccc(NC(=O)OCCOC(=O)Nc2ccc(OC(C)C(=O)OC)cc2)cc1` (stereo not given) gave a melting point of 98 to 100 °C.

Molecule `CNc1nc(-c2cccc(-c3cnc4c(C)cccc4c3)c2)c2cc(OC)c(OC)cc2n1` returned a melting point of 188 to 190 °C.

Regarding `CCN1C(=O)CC(=O)N(c2ccccc2)c2cc(Cl)ccc21`, the melting point was in the range of 220 to 222 °C.

For the molecule `CCOCc1nc2c(N)nc3ccccc3c2n1CCCC(=O)N1CCOCC1`, the melting point was in the range of 201 to 203 °C.

The molecule `CN1CCC(O)(c2ccccc2Cc2ccccc2)C1` (stereo not given) yielded a melting point of 108 to 109 °C.

`CCCCc1ccc(C(=O)N[C@H](Cc2ccc(C(F)(F)F)cc2)[C@@H](O)c2ccc(F)cc2)cc1` (racemic) yielded a melting point of 171 to 172 °C.

The molecule `CCCCOc1cc(OC)ccc1C(=O)c1cccc(C(=O)O)c1` had a melting point of 112 to 115 °C.

The molecule `O=C(COc1cc(Cl)c(Cl)c([N+](=O)[O-])c1)c1ccccc1` registered a melting point of 118 to 126 °C.

Molecule `CN(C(=O)COc1nnc(-c2ccco2)s1)c1ccccc1` registered a melting point of 94 °C.

As for `O=C1c2ccccc2-n2c(nc3ccccc3c2=O)CN1CCc1ccccc1`, the melting point lay within 208 to 210 °C.

`COc1nc(C)cnc1NS(=O)(=O)c1cnccc1-c1ccc(CC(C)C)cc1` came in with a melting point of 232 to 233 °C.

In the case of `Cc1noc(CCCCCCCOc2ccc(C3=NCCO3)cc2)c1CN1CCCC1`, the melting point is 98 to 99 °C.

In the case of `CC1(c2ccc(OCc3ccccc3)c(Br)c2)C(=O)Nc2cc(Cl)cc(Cl)c2C1=O` (stereo not given), the melting point was in the range of 189 to 190 °C.

The molecule `NNc1cc2c(nn1)CCN(C(=O)c1ccccc1F)C2` yielded a melting point of 210 to 213 °C.

`COc1ccccc1N1CCN([C@@H]2Cc3c(cccc3OC)C[C@H]2O)CC1` (relative stereo): the melting point lay within 138 to 141 °C.

`CN(c1cccc2cc(-c3ncc(CCC(=O)NS(C)(=O)=O)s3)[nH]c12)S(=O)(=O)c1cccs1`: the melting point lay within 217 to 218 °C.

As for `O=C(O)CN(CCc1ccccc1)C(=O)[C@@H]1C[C@@H](S)CN1S(=O)(=O)c1ccc2ccccc2c1`, the melting point fell in the range of 198 to 200 °C.

On to `COc1cc(C=C2NC(=O)NC2=O)cc(OC)c1O`, for which the melting point was in the range of 296 to 297 °C.

Take `C=C(C)C(=O)NC1=NN(c2ccc(Cl)c(Cl)c2)C(=O)C1`: the melting point is 212 to 213 °C.

On to `CS(=O)(=O)c1ccc(-n2nc(C(F)(F)F)cc2-c2ccc(-c3ccco3)cc2)cc1`, for which the melting point amounted to 196 °C.

With `COc1ccc(OC)c2nc(Cl)c(CCCl)cc12`, the melting point was in the range of 108 to 110 °C.

The molecule `CCc1cc2c(Cl)cc(F)c(-n3c(=O)cc(C(F)(F)F)n(C)c3=O)c2o1` had a melting point of 142 to 143 °C.

As for `COc1ccc(C(=O)N(C)C)c(-c2ccccc2)c1OC`, the melting point was 101 to 102 °C.

In turn, `O=C1CCN(C(=O)C(Cc2ccccc2)NC(=O)c2cc3cc(Cl)ccc3[nH]2)CC1` (stereo not given) showed a melting point of 258 to 261 °C.

In turn, `COc1cc([N+](=O)[O-])ccc1-c1cccc(C(=O)O)c1` had a melting point of 88 to 88.5 °C.

In turn, `CCCNC(=O)C(Cc1ccc2c(c1)c(Cc1ccc(C(=O)OC)cc1OC)cn2CCC)C(C)C` (stereo not given) had a melting point of 123 to 125 °C.

Molecule `O=C(CCCCCCn1ccc2ccc(NC(=O)OC3CCCC3)cc21)NS(=O)(=O)c1ccccc1` returned a melting point of 74 to 76 °C.

Molecule `C[C@]1(CN2CCN(NCc3ccc(C(F)(F)F)cc3)CC2)Cn2cc([N+](=O)[O-])nc2O1` registered a melting point of 131 to 136 °C.

`O=C(Nc1ccc(NC(=S)NCc2ccccc2)cc1)c1ccc(NC(=S)NCc2ccccc2)cc1` came in with a melting point of 207 °C.

In the case of `COc1ccc(C(N)C2(C(=O)O)C3CC4CC(C3)CC2C4)cc1` (stereo not given), the melting point was 205 to 213 °C.

On to `O=c1oc(=O)c2ccc3c4ccccc4sc4ccc1c2c43`, for which the melting point was 315 to 317 °C.

The molecule `COc1ccc(-c2c(NC(C)(C)Cc3ccccc3)c(=O)c2=O)cc1` yielded a melting point of 150 to 151 °C.

As to `Cc1cc(CCCCCOc2c(Cl)cc(-c3ccco3)cc2Cl)on1`, the melting point is 29 to 30 °C.

Molecule `COn1c(C)nc2c(NCc3c(C)cccc3C)cc(Br)cc21` showed a melting point of 171 to 172 °C.

Consider `CCCc1nc(C(C)(C)O)c(C(=O)OC2OC(=O)c3ccccc32)n1Cc1ccc(-c2ccccc2-c2nnn[nH]2)cc1` (stereo not given), for which the melting point lay within 168 to 170 °C.

`O=Cc1cc(O)c2c(c1)C(=O)c1cccc(O)c1C2=O` displayed a melting point of 198 to 200 °C.

Molecule `CCOC(=O)CC(NC(=O)C1=C(C(=O)Nc2ccc(Cl)cc2F)CCCC1)C(=O)OCC` (stereo not given) came in with a melting point of 109 to 110 °C.
